The text below walks through data of patent US4992450A, “Piperidine opioid antagonists” (Eli Lilly and Company, priority 1989, dated 1991).

Usually Ki stands for the equilibrium dissociation constant of an inhibitor or competing ligand from its target.

The target of experiment [1] is T1, mu receptor (Rattus norvegicus, UniProt P33535).
T1 construct: rat whole brain minus cerebellum for mu and delta sites; from tissue; host or cells: rat whole brain minus cerebellum, frozen pellet fraction
As to the kind of experiment: Opioid receptor binding displacement assay, mu site (rat whole brain minus cerebellum, 3H ligand). On the set-up: species or system Male Sprague Dawley rats. The protocol:
(§1) This assay was conducted by the following procedure.
(§2) Male Sprague Dawley rats for mu and delta site experiments and male Hartley guinea pigs for kappa site experiments were sacrificed via decapitation and the brains were removed. The brain tissue, rat whole brain minus cerebellum for mu and delta sites and guinea pig cortex for the kappa site, was homogenized in a Teflon and glass tissue homogenizer. A supernatant I, pellet IV, fraction was frozen in a nitrogen freezer at 1.33 g/ml concentration and stored for not longer than five weeks prior to use. Pellets were rehydrated with physiological buffer prior to use.
(§3) The reaction was initiated by the addition of the rehydrated tissue which has been preincubated at 37° C. for 20 minutes. The reaction mixture was incubated in a 37° C. water bath for 20 minutes. The reaction was terminated by rapid filtration, (Amicon vacuum manifolds), through Whatman GF/C glass filters that had been presoaked in Krebs-Hepes buffer pH 7.4. The filters were then washed 2× with 5 ml of ice cold Krebs-Hepes buffer pH 7.4. Washed filters were placed in scintillation vials and 10 ml PCS, (Amersham), was added and samples counted in a Searle D-300 beta counter. Means and standard error statistics were calculated for triplicate experimental determinations in certain cases. The procedure was slightly modified for the kappa site. The tissue was pretreated with 100 nM concentrations of mu and delta receptor site blockers. The incubation time for the reaction mixture was 45 minutes at 37° C.

In experiment [2] the target is T2, kappa receptor (Cavia porcellus, UniProt P41144).
T2 construct: guinea pig cortex for the kappa site; from tissue; host or cells: guinea pig cortex, frozen pellet fraction
The experiment in a line: Opioid receptor binding displacement assay, kappa site (guinea pig cortex, 3H ligand). More on the design: species or system male Hartley guinea pigs. The protocol: as §1, §2, §3

Experiment [3] has as its target T3, mu receptor (Mus musculus, UniProt P42866).
T3 construct: Five CF-1 male mice (Charles River, Portage, Mich.); from tissue; host or cells: whole living CF-1 male mice (in vivo)
The experiment in a line: Mouse writhing assay, antagonism of morphine analgesia (mu). Type of experiment: in vivo, CF-1 male mice. The note with it: sc, read-out: Mu AD50. For orientation: In writhing tests, fewer writhes than in controls are read as antinociception.

The target of experiment [4] is T4, kappa receptor (Mus musculus, UniProt P33534).
T4 construct: Five CF-1 male mice (Charles River, Portage, Mich.); from tissue; host or cells: whole living CF-1 male mice (in vivo)
As to the kind of experiment: in vivo. More on the design: species or system CF-1 male mice. Particulars: sc, read-out: Kappa AD50.

Experiment [5] concerns meal fed obese Zucker rats. The experiment in a line: Food consumption assay in meal fed obese Zucker rats. Type of experiment: in vivo. Particulars: Rattus norvegicus, sc, 4 h, amount to decrease food consumption 20% during first four hours. The text has this:
The following assay was employed to evaluate the ability of the compounds of the invention to effect food and water consumption of meal fed obese Zucker rats.
According to this procedure, 3-4 month old obese Zucker rats were trained to eat food daily from 8:00 A.M. to 4:00 P.M. only, such that the body weight gain approximates that if the rats were fed ad libitum. These rats were allowed to consume water at all times. Four groups of rats with four rats in each group, two female and two male, were formed. One group served as control for the other three groups each day. Each of the other groups were given a subcutaneous dose of the compound to be evaluated. The test compound was formulated in physiological saline containing 10% dimethylsulfoxide by volume.
Animals remained drug free for 4 days before the next test. Food and water consumption of each rat were measured for the first four hours. A test on one compound was run for three consecutive days. The drug effect was expressed as the percent of the control for that test day.
In the Table, column 1 gives the Example Number of the compound evaluated; and column 2 provides the ED20 in mg/kg, wherein ED20 represents the amount of compound evaluated in mg/kg necessary to decrease food consumption 20% during the first four hours of the experiment.

In the next experiment the target is T5, kappa receptors (Rattus norvegicus, UniProt P34975).
T5 construct: sixty male Long-Evans hooded rats; from tissue; host or cells: whole living male Long-Evans hooded rats (in vivo)
As to the kind of experiment: Rat diuresis assay, antagonism of bremazocine-induced urination. It counts as in vivo, male Long-Evans hooded rats. Particulars: sc, rats, s.c., urinary output reduced to 50% of effect of 0.08 mg/kg bremazocine alone. The protocol: As such, the compounds of the invention were also evaluated in a rat diuresis assay conducted according to the following procedure described by Leander et al. in Drug Development Research 4:421-427 (1984) in an effort to further establish the ability of the present compounds to block kappa receptors.
According to this procedure, sixty male Long-Evans hooded rats (Charles River Breeding Laboratories, Portage, Mich.) weighing between about 300 and 500 grams each were housed either individually or in pairs in a temperature-controlled (23° C.) colony room which was illuminated between 6:00 A.M. and 6:00 P.M. Rodent chow and tap water were continuously available except during the measurement of urine output. The animals were used repeatedly, but no more frequently than twice a week.
The animals were then injected with various doses of the test compounds. To measure urine output, the animals were removed from the home cages, weighed, injected and placed in metabolism cages for 5 hr. Excreted urine was funneled into graduated cylinders. Cumulative urine volumes were determined at designated time intervals, usually at 2 and 5 hr after injection.
The compounds which are salt forms were dissolved in distilled water. If necessary, the compounds were dissolved in distilled water with the aid of either a few drops of lactic acid or hydrochloric acid and gentle warming. All injections were s.c. in a volume of 1 ml/kg of body weight. During tests for antagonism, two injections were given, one on each side of the body.
In the Table, column 1 provides the Example Number of the compound tested; column 2, the amount of compound in mg/kg necessary to reduce the urinary output to 50% of the effect produced by 0.08 mg/kg of bremazocine alone two hours after injection of bremazocine and the test compound; and column 3, the amount of compound in mg/kg necessary to reduce the urinary output to 50% of the effect produced by 0.08 mg/kg of bremazocine alone five hours after injection of bremazocine and the test compound.

The mark [6] stands for this setting: rat brain minus cerebellum, pH 7.4, 37° C., 20 minutes, read-out: Ki Mu.
Setting [7] is: guinea pig cortex, pH 7.4, 37° C., 45 minutes, mu and delta sites blocked (100 nM), read-out: Ki Kappa.
Where [8] appears, read: 2 h, two hours after injection, read-out: AD50 Two Hours.
Where [9] appears, read: 5 h, five hours after injection, read-out: AD50 Five Hours.

Structures are written as SMILES. Structures can show the parent of a compound that is named as a salt. Where two headings read alike, the source gives them in different places.

T3 sequence (P42866 whole entry): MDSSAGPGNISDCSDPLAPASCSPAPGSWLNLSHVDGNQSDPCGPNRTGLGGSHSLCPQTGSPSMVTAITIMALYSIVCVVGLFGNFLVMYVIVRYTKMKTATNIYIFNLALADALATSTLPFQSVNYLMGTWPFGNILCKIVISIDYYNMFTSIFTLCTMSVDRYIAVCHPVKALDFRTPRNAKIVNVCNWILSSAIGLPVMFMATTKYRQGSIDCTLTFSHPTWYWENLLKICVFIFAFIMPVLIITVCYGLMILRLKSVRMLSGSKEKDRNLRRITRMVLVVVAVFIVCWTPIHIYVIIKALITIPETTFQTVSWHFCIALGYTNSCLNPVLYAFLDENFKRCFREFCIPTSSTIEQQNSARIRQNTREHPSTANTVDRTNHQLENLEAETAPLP
T5 sequence (P34975 whole entry): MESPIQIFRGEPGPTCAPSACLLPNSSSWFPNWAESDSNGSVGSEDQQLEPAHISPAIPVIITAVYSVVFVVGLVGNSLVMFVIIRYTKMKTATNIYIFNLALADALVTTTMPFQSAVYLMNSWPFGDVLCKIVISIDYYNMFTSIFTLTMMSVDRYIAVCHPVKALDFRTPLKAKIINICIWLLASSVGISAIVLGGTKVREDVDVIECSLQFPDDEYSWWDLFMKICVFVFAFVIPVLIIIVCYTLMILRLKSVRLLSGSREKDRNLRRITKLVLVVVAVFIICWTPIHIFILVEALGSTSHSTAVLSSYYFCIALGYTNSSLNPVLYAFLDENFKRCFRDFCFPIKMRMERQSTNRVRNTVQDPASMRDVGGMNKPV
T1 sequence (P33535 whole entry): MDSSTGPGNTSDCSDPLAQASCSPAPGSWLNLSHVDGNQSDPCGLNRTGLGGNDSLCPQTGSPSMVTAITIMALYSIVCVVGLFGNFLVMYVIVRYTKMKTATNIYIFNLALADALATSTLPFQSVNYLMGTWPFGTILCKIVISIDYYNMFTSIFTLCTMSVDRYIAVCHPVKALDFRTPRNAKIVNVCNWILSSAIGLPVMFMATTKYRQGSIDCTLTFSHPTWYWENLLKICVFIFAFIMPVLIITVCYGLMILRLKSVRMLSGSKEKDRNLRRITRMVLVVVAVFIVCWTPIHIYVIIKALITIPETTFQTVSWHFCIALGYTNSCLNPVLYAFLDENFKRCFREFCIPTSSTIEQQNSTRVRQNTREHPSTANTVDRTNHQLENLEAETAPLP
T2 sequence (P41144 whole entry): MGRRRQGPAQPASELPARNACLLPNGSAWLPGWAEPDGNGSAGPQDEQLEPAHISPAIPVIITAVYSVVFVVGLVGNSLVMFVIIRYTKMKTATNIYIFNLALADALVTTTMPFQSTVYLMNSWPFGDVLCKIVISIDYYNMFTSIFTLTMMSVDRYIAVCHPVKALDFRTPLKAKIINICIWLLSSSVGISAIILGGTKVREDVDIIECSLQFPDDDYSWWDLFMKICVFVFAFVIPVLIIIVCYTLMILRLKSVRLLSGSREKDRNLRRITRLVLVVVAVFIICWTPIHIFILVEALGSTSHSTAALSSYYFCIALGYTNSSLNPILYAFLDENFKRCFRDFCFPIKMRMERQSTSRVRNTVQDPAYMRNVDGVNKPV
T4 sequence (P33534 whole entry): as the sequence (P34975 whole entry) above, with E11D, A17S, P51S, V308A counted along it

`C[C@H]1CN(CCC(O)C2CCCCC2)CC[C@@]1(C)c1cccc(O)c1` (relative stereo) [Example 27, trans-(±)-1-[R,S-(3-Hydroxy-3-cyclohexylpropyl)]-3,4-dimethyl-4-(3-hydroxyphenyl)piperidine hydrochloride]: the figures for the inhibition constant Ki on mu receptor [1] (setting [6]) and at kappa receptor [2] (setting [7]) were 0.22 ± 0.03 nM and 5.04 ± 0.58 nM, respectively. The ED50 amounted to 0.07 mg/kg on mu receptor [3] and 0.14 mg/kg on kappa receptor [4]. In addition, in experiment [5], the ED20 turned out to be 0.04 mg/kg.

For `C[C@@H]1CN(CC[C@H](O)C2CCCCC2)CC[C@]1(C)c1cccc(O)c1` [Example 24, trans-(-)-1-[S-(3-Hydroxy-3-cyclohexylpropyl)]-3,4-dimethyl-4-(3-hydroxyphenyl)piperidine], the Ki turned out to be 1.4 ± 0.61 nM on mu receptor [1] (setting [6]) and 11.4 ± 4.29 nM on kappa receptor [2] (setting [7]). The results for the ED50 on mu receptor [3] and on kappa receptor [4] were 0.05 mg/kg and 0.24 mg/kg, respectively. The molecule further displayed an ED20 in experiment [5] of 0.12 mg/kg.

In the case of `CC(C)CCCN1CCC(C)(c2cccc(O)c2)C(C)C1` (stereo not drawn) [Example 15, trans-(±)-1-(4-Methylpentyl)-3,4-dimethyl-4-(3-hydroxyphenyl)piperidine hydrochloride], the Ki was 1.25 ± 0.4 nM at mu receptor [1] and 9.43 ± 1.67 nM on kappa receptor [2]. The ED50 worked out at 0.11 mg/kg at mu receptor [3], 0.09 mg/kg on kappa receptor [4], 0.27 mg/kg on kappa receptors (setting [8]) and 0.39 mg/kg on kappa receptors (setting [9]). This molecule gave an ED20 in experiment [5] of 3.65 mg/kg.

As to `C[C@H]1CN(CCC(=O)C2CCCC2)CC[C@@]1(C)c1cccc(O)c1` (relative stereo) [Example 17, trans-(±)-1-(1-Cyclopentylpropanon-3-yl)-3,4-dimethyl-4-(3-hydroxyphenyl)piperidine hydrochloride], the inhibition constant Ki on mu receptor [1] was found to be 0.84 nM; at kappa receptor [2] it was 0.55 nM. Moreover, the ED50 on mu receptor [3] amounted to 0.21 mg/kg; at kappa receptor [4], 0.19 mg/kg. In experiment [5], the ED20 came to 0.31 mg/kg.

As for `C[C@H]1CN(CCc2ccccc2)CC[C@@]1(C)c1cccc(O)c1` (relative stereo) [Compound D, 3-(3α,4β-Dimethyl-1-phenethyl-4α-piperidyl)phenol hydrochloride, reference compound], the figures for the Ki at mu receptor [1] (setting [6]) and at kappa receptor [2] (setting [7]) were 1.2 nM and 51 nM, respectively. The ED50 on mu receptor [3] worked out at 0.16 mg/kg; at kappa receptor [4] it was 1.38 mg/kg. This molecule also came in with an ED20 in experiment [5] of 0.94 mg/kg.

As to `C[C@H]1CN(CCC(O)c2ccccc2)CC[C@@]1(C)c1cccc(O)c1` (relative stereo) [Compound A, 4β-(3-Hydroxyphenyl)-3β,4α-dimethyl-α-phenyl-1-piperidinepropanol hydrochloride, reference compound], the results for the Ki at mu receptor [1] (setting [6]) and at kappa receptor [2] (setting [7]) were 1 nM and 22.7 nM, respectively. Also, the ED50 on mu receptor [3] was 0.05 mg/kg; at kappa receptor [4], 0.92 mg/kg; on kappa receptors (setting [8]), 4.09 mg/kg; on kappa receptors (setting [9]), 2.65 mg/kg. The molecule further came in with an ED20 in experiment [5] of 0.55 mg/kg.

For the molecule `C=C(C)CCCN1CCC(C)(c2cccc(O)c2)C(C)C1` (stereo not drawn) [Example 3, trans-(±)-1-(4-Methyl-4-pentenyl)-3,4-dimethyl-4-(3-hydroxyphenyl)piperidine hydrochloride], the results for the Ki at mu receptor [1] and at kappa receptor [2] were 2.95 ± 1.12 nM and 13.9 ± 6.66 nM, respectively. Also, the ED50 was 0.08 mg/kg on mu receptor [3], 0.29 mg/kg at kappa receptor [4], 0.27 mg/kg on kappa receptors (setting [8]) and 0.39 mg/kg at kappa receptors (setting [9]). Besides, the ED20 in experiment [5] is 0.29 mg/kg.

As to `C[C@H]1CN(CC[C@H](O)C2CCCCC2)CC[C@@]1(C)c1cccc(O)c1` [Example 23, trans-(+)-1-[S-(3-Hydroxy-3-cyclohexylpropyl)]-3,4-dimethyl-4-(3-hydroxyphenyl)piperidine], the results for the inhibitory constant (Ki) at mu receptor [1] (setting [6]) and at kappa receptor [2] (setting [7]) were 0.41 ± 0.09 nM and 2.02 ± 0.46 nM, respectively. Moreover, the ED50 on mu receptor [3] was 0.01 mg/kg; at kappa receptor [4] it was 0.07 mg/kg; on kappa receptors (setting [8]) it was 0.4 mg/kg; at kappa receptors (setting [9]) it was 0.38 mg/kg. This molecule registered an ED20 in experiment [5] of 0.05 mg/kg.
